Data as given in patent publication US12091708B2, “Compositions and methods targeting the Th2 pathway for the treatment of asthma” (THE CHILDREN'S HOSPITAL OF PHILADELPHIA, priority 2017, dated 2024).

Target: T1, CRTH2 receptor (Homo sapiens, UniProt Q9Y5Y4)
T1 construct: CD3+ cells were isolated from the rested PBMCs using Human T-Expander CD3/CD28 Dynabeads; endogenous in cells; host or cells: primary human CD3+/CD28+ T cells purified from PBMCs of healthy volunteers, expanded 10 days under TH2-skewing conditions
T1 sequence (Q9Y5Y4 1-395): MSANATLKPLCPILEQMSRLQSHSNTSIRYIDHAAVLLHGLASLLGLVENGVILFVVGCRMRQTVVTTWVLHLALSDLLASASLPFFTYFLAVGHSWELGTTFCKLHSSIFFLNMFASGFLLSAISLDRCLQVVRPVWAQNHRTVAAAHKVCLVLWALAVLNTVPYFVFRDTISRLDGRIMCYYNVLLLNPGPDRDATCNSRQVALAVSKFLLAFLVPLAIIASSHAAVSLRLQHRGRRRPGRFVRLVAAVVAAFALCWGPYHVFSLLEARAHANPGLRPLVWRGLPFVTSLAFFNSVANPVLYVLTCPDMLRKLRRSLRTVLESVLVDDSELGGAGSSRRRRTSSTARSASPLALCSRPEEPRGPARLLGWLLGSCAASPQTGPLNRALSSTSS
Experiment: CRTH2 assay: IL-13 expression (qPCR) in expanded, TH2-skewed T cells stimulated with PGD2 with or without CD3/CD28
Type: cell-based
Conditions: T cells from healthy human volunteers, increasing concentrations of PGD2, with CD3/CD28 stimulation (FIG. 4)
Method: As discussed above, CRTH2 is a key regulator of TH2 cytokine expression and action. We developed a CRTH2 assay to determine the effects of the SNP, rs2786098, on CRTH2 expression and action. The CRTH2 assay was developed using the following protocol. PBMCs were thawed and placed into 10 ml of RPMI+20% FBS in 15 ml conical tubes. Tubes were closed tightly, and placed on a rocker in the incubator overnight. Viable cell counts were obtained the following day. CD3+ cells were isolated from the rested PBMCs using Human T-Expander CD3/CD28 Dynabeads. These magnetic beads were used to purify CD3+/CD28+ T cells from the PBMC mixture, and then left in the cell culture to provide stimulation and co-stimulation to induce expansion of the T cells. Purified T cells were cultured with the beads in the presence of IL-2, IL-4, anti-IFNγ, and anti-IL-12. IL-2 provides a proliferative stimulus, while IL-4, anti-IFNγ, and anti-IL-12 provide TH2 skewing conditions. Cells were cultured, and culture volume was increased as required, for 10 days, at which point, they were stimulated at 500,000 cells per well with the indicated stimuli for 8 hours. Cell pellets were harvested and RNA was extracted. Gene expression was determined by qPCR. […]

Structure (SMILES): CCCCC[C@H](O)/C=C/[C@H]1C(=O)C[C@H](O)[C@@H]1C/C=C\CCCC(=O)O [PGD2, Prostaglandin D2]
- IL-13 production on stimulation: additional IL-13 was produced
